Results: patent publication EP0097071A1, “Benzhydryl sulfinylacetamide derivatives and their therapeutical use” (LABORATOIRE L. LAFON Société anonyme dite:, priority 1982, dated 1983)
Like-named read-outs stand apart in the source and are kept apart here.

What was measured:
souris [1] = test: Electroshock; assay type: in vivo; conditions: 32 mg/kg à 128 mg/kg i.p.
souris [2] = test: Asphyxic anoxia (gallamine triethiodide); assay type: in vivo; conditions: 128 mg/kg i.p., 30 min before triiodoéthylate de gallamine 32 mg/kg i.p.
Experimental: (§1) On a résumé ci-après les résultats des essais pharmacologiques qui ont été entrepris avec les produits selon la présente addition. Dans ces essais, les produits de formule I à étudier ont été administrés par voie intrapéritonéale, en suspension dans une solution aqueuse de gomme arabique, sous un volume de 20 ml/kg chez la souris mâle et sous un volume de 5 ml/kg chez le rat mâle.
Des lots de 10 souris par dose reçoivent le CRL 40933 30 min avant l'administration intrapéritonéale de 32 mg/kg de triiodoéthylate de gallamine.

souris [3] = test: Interaction with barbital (sleep); assay type: in vivo; conditions: dès la dose de 8 mg/kg i.p., barbital 220 mg/kg i.p.
Summary of the method: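 Male mice (groups of 10) dosed intraperitoneally with compound suspended in aqueous gum arabic (20 ml/kg); barbital 220 mg/kg i.p. given half an hour later.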

souris [4] = test: Intergroup aggressiveness; assay type: in vivo; conditions: dose not stated
Experimental: as §1
Après avoir séjourné pendant 3 semaines dans chacune des moitiés d'une cage séparées par une cloison opaque, des groupes de 3 souris reçoivent le CRL 40933. 30 min plus tard, les deux groupes d'une même cage sont réunis par retrait de la cloison et on note le nombre de combats qui surviennent en 10 min.

souris [5] = test: Behavioural despair (forced immersion); assay type: in vivo; conditions: souris; 8 mg/kg, 32 mg/kg, mais surtout 128 mg/kg i.p.
Summary of the method: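 Male mice were dosed i.p. with compound suspended in aqueous gum arabic at 20 ml/kg, 10 per dose. Thirty minutes later each mouse was put in a confined space holding 6 cm of water, and immobility time was scored from minute 2 to minute 6.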

SNC = test: Essential activity on the CNS (Tableau I and conclusions of the neuropsychopharmacological study); assay type: in vivo
Source text: Dans le tableau I ci-après, on a consigné un certain nombre de composés selon la formule I de façon nullement limitative, en mentionnant l'activité essentielle sur le SNC.
Les composés de formule I agissent tous sur le SNC. Les produits des exemples 1-3 et 7-8 sont des agents stimulants, en revanche les produits des exemples 4-6 sont des agents sédatifs.

souris [6] = test: Traction test; assay type: in vivo; conditions: 0,5 h after administration, dose not stated
souris [7] = test: Four plates test; assay type: in vivo; conditions: 0,5 h after administration, dose not stated
souris [8] = test: Interaction with apomorphine, mouse; assay type: in vivo
Summary of the method: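 Male mice, 6 per dose, received the test compound intraperitoneally as an aqueous gum arabic suspension (20 ml/kg).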

souris [9] = test: Motility reduced by hypoxic aggression (acute hypobaric anoxia); assay type: in vivo; conditions: 128 mg/kg i.p.
Summary of the method: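 Male mice (10 per dose, 20 controls) got compound i.p. as an aqueous gum arabic suspension (20 ml/kg). Thirty minutes later they underwent acute hypobaric anoxia: 600 mm Hg depression over 90 s, then 45 s release. Motility was then recorded in an actimeter for 10 min.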

homme = test: Clinical trials; assay type: in vivo
Source text: Les études cliniques ont porté sur les troubles de la vigilance, de l'éveil et des états confusionnels, d'une part, et sur les troubles de l'affectivité, du contact et des dépressions, d'autre part.

souris [10] = test: Motility reduced by habituation to the enclosure; assay type: in vivo
Summary of the method: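 Male mice (6 per dose, 12 controls) habituated 18 h in actimeters got compound i.p. as aqueous gum arabic suspension, 20 ml/kg. Returned to enclosures immediately; motility recorded for 30 min starting 30 min post-dose.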

souris mâle [11] = test: Pentobarbital-induced sleep duration; assay type: in vivo; conditions: dose 8 mg/kg i.p., 0,5 h before pentobarbital
Source text: Les composés selon l'invention se distinguent du benzhydrylsulfinylacétamide (CRL 40476) précité par une différence d'action vis-à-vis du sommeil barbiturique. […]. Cette différence d'action qui est intéressante sur le plan thérapeutique est illustrée par le tableau IV

rat = test: Interaction with apomorphine, rat; assay type: in vivo; conditions: apomorphine 0,5 mg/kg s.c., dose not stated
Experimental: as §1
Le CRL 40933 est administré à des lots de 6 rats 0,5 h avant l'injection sous-cutanée de 0,5 mg/kg d'apomorphine.

rats = test: Interaction with amphetamine (stereotypies); assay type: in vivo; conditions: rat; amphétamine 2 mg/kg i.p.; doses used, not stated
Experimental: as §1
L'amphétamine (2 mg/kg)est injectée par voie intrapéritonéale à des lots de 6 rats, 30 min après l'administration de CRL 40933.

souris mâle [12] = test: Toxicity, DL-0; assay type: in vivo; conditions: i.p.
Summary of the method: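 Male mice dosed intraperitoneally with compound suspended in aqueous gum arabic at 20 ml/kg. Value is DL-0, the minimal non-lethal dose.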

souris mâles = test: Global behaviour and reactivities, mouse; assay type: in vivo; conditions: souris
[13] = Global behaviour and reactivities, mouse; assay type: in vivo, souris; conditions: mouse, in vivo, ip, souris, 24 h après administration, read-out: mortalité tardive
rats mâles = test: Global behaviour and reactivities, rat; assay type: in vivo
souris [14] = test: Interaction with oxotremorine; assay type: in vivo
Summary of the method: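 Groups of 6 male mice received test compound i.p. as a suspension in aqueous gum arabic (20 ml/kg).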

souris [15] = test: Interaction with reserpine; assay type: in vivo; conditions: 32 mg/kg et 12'8 mg/kg i.p.
souris [16] = test: Spontaneous motility (actimeter); assay type: in vivo
Summary of the method: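 Male mice dosed i.p. as a suspension in aqueous gum arabic (20 ml/kg); 30 min later they are placed in an actimeter and motility is recorded for 30 min, 6 mice per dose, 12 controls.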

## NC(=O)C[S+]([O-])C(c1ccccc1)c1ccc(Cl)cc1 (stereo not shown) [Exemple 7, 4-chlorobenzhydrylsulfinylacétamide]
Souris [1]
  effets convulsivants de l'électrochoc: s'oppose
Souris [2]
  délai d'apparition des convulsions et de la mort consécutives à une anoxie asphyxique: diminue
Souris [3]
  durée du sommeil induit par le barbital: diminue
Souris [4]
  agressivité intergroupes (nombre de combats): ne modifie pas nettement
Souris [5]
  durée d'immobilité: diminue
SNC; in vivo
  Activité sur le SNC: stimulant
  conclusion of the neuropsychopharmacological study: main type of CNS effect: effets de type stimulant
  conclusion: effets de type antidépresseur: effets de type antidépresseur qui sont faibles
SNC; souris mâle
  conclusion: effets anticonvulsivants: effets anticonvulsivants
Souris [6]
  déficit moteur (traction): ne provoque pas de déficit moteur majeur
Souris [7]
  nombre de passages punis: n'entraine pas d'augmentation nette
Souris [8]; 128 mg/kg i.p.
  comportement de verticalisation et stéréotypies (apomorphine): sans modifier
Souris [8]; 128 mg/kg i.p. 0,5 h before apomorphine 16 mg/kg s.c.
  action hypothermisante de l'apomorphine: s'oppose
Souris [9]
  récupération motrice après séjour bref dans une enceinte à pression réduite: amélioration nette
homme
  action contre l'énurésie: agissent efficacement
homme; notamment vieillard, gélules ou comprimés de 100 à 200 mg, 1 à 3 par jour
  résultats en tant que médicaments de l'éveil: excellents résultats
Souris [10]; 2 mg/kg et 8 mg/kg i.p.
  reprise de l'activité chez la souris habituée à son enceinte: à peine perceptible
Souris [10]; 32 mg/kg à 128 mg/kg i.p.
  reprise de l'activité chez la souris habituée à son enceinte: net
Souris mâle [11]
  Action sur la durée du sommeil induit par le pentobarbital (50 mg/kg i.p.) effet: (a)
rat
  stéréotypies induites par l'apomorphine: ne modifie pas
rats
  stéréotypies amphétaminiques: ne modifie pas sensiblement
Souris mâle [12]
  DL-O: supérieure à 256 mg/kg
Souris mâles; 512 mg/kg i.p.
  Observations (comportement global et réactivités): crampes abdominales, sédation et hypo-réactivité au toucher
Souris mâles; 1024 mg/kg i.p.
  Observations (comportement global et réactivités): crampes abdominales, sédation et hypo-réactivité au toucher, respiration dépri-mée
Souris mâles; 128 mg/kg i.p.
  Observations (comportement global et réactivités): excitation apparaissant 1,5 h après administration et durant 3 h - réactivité au toucher
Souris mâles; 256 mg/kg i.p.
  Observations (comportement global et réactivités): crampes abdominales, respiration déprimée, puis - excitation apparaissant 1,5 h après administration
[13]; 512 mg/kg i.p.
  mortality at 24 h: 33%
[13]; 1024 mg/kg i.p.
  mortality at 24 h: 66%
Rats mâles; 16 mg/kg i.p.
  Observations (comportement global et réactivités): mydriase 1 h après administration
Rats mâles; 64 mg/kg i.p.
  Observations (comportement global et réactivités): hypotonie musculaire pendant 3 h - respiration déprimée pendant 3 h - mydriase pendant 2 à 3 h
Souris [14]; 128 mg/kg i.p., 0,5 h before oxotrémorine 0,5 mg/kg i.p.
  effet hypothermisant de l'oxotrémorine: s'oppose faiblement
Souris [14]; dose not stated
  signes de stimulation cholinergique périphérique dus à l'oxotrémorine: ne modifie pas
  tremblements induits par l'oxotrémorine: ne sont pas influencés
Souris [15]
  ptôsis réserpinique: sans modifier
Souris [15]; 4 h after réserpine 2,5 mg/kg i.p.
  hypothermie réserpinique: s'oppose très faiblement
Souris [16]; 2 mg/kg i.p. (lowest dose used)
  motilité spontanée: diminution de motilité
Souris [16]; 32 mg/kg et 128 mg/kg i.p.
  motilité spontanée: augmentation nette
